Drawing on ChEMBL document CHEMBL1135342, “Synthesis and evaluation of thymidine-5'-O-monophosphate analogues as inhibitors of Mycobacterium tuberculosis thymidylate kinase” (Bioorg Med Chem Lett, 2002), this text covers Vm (uM min-1 (mg of protein)-1) for 7 compounds.

The experiment deals with T1, Thymidylate kinase (Mycobacterium tuberculosis) (UniProt P9WKE1).
T1 sequence (whole entry): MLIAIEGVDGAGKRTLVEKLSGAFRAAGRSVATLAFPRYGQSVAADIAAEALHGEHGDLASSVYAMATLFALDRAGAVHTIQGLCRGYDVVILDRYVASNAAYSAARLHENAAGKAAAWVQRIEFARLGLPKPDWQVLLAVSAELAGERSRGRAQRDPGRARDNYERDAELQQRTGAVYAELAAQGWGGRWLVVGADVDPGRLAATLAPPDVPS
Description: Enzyme Kinetic constant was determined in the presence of Mycobacterium tuberculosis thymidine monophosphate kinase.
For the compound `O=c1[nH]c(=O)n([C@H]2C[C@H](O)[C@@H](COP(=O)(O)O)O2)cc1I`, the Vm (uM min-1 (mg of protein)-1) was determined as 7.5.

With `O=c1ccn([C@H]2C[C@H](O)[C@@H](COP(=O)(O)O)O2)c(=O)[nH]1`, the Vm (uM min-1 (mg of protein)-1) is 3.5.

As to `Cc1cn(-c2ccc(COP(=O)(O)O)o2)c(=O)[nH]c1=O`, the Vm (uM min-1 (mg of protein)-1) amounted to 0.16.

Regarding `O=c1[nH]c(=O)n([C@H]2C[C@H](O)[C@@H](COP(=O)(O)O)O2)cc1Br`, the Vm (uM min-1 (mg of protein)-1) is 9.8.

As for `Cc1cn([C@H]2C[C@H](O)[C@@H](COP(=O)(O)O)O2)c(=O)[nH]c1=O`, the Vm (uM min-1 (mg of protein)-1) was 10.6.

For the compound `Cc1cn([C@H]2C[C@H](F)[C@@H](COP(=O)(O)O)O2)c(=O)[nH]c1=O`, the Vm (uM min-1 (mg of protein)-1) was found to be 0.11.

With `O=c1[nH]c(=O)n([C@H]2C[C@H](O)[C@@H](COP(=O)(O)O)O2)cc1F`, the Vm (uM min-1 (mg of protein)-1) came out at 4.7.
